In PubChem BioAssay AID2060886 (Molecular Pharmacology Branch, DTP, NCI, 2025):

Test system: 653999-131-R-J2-PDC complex spheroids, growth inhibition
Experiment: Anticancer human tumor 653999-131-R-J2-PDC patient-derived lung adenocarcinoma cell line growth inhibition [RAS]
Conditions: for IC50: curve of first compound; for viability, T/C: stronger effect = lower value
Source text: RAS pathway inhibitors in Combinations in Complex Spheroids
A high-throughput screen of multi-cell type tumor spheroids was designed to identify active combinations of RAS pathway inhibitors and targeted small molecules. Complex spheroids include a stromal component modeled by human endothelial cells (HUVEC) and fibroblasts modeled by human mesenchymal stem cells (MSCs). The concentration ranges selected for each drug and investigational agent were based upon clinically achievable concentrations if the clinical Cmax of the agent was known.
Compounds. The drugs and investigational agents: abemaciclib (NSC768073), cobimetinib (NSC768068), divarasib (GDC6063, NSC841802), docetaxel (NSC628503), GDC-1971 (RLY-1971, NSC841576), gemcitabine (NSC613327), inavolisib (NSC800729), ipatasertib (NSC767898), KB-0742 (NSC834161), MRTX-1133 (NSC836407), osimertinib (NSC779217), RMC-4630 (NSC839698), RMC-6236 (NSC851965), RMC-6291 (NSC852671), Ro-3306 (NSC812927), sapanisertib (NSC764658), SN-38 (NSC673596), staurosporine (NSC755774), SY5609 (NSC837396), and tovorafenib (DAY101, NSC766906), were obtained from the National Cancer Institute (NCI) Developmental Therapeutics Program Chemical Repository. The FDA-approved anticancer drug set is available from the NCI Developmental Therapeutics Program. […] The stock solutions were prepared in dimethyl sulfoxide (DMSO, Sigma-Aldrich, St. Louis, MO, cat. D2650) at 800-fold the tested concentration and stored at -70 degrees C prior to their use. All drugs and investigational agents were tested over a range starting from a high concentration at or near the clinical Cmax and decreasing in half-log increments. If the clinical Cmax for an agent had not been determined, the highest concentration tested was 10 microM.
Cell Culture. All cells were maintained in an incubator at 37 degrees C and 5% CO2 with 95% humidity. The PDC lines were cultured according to standard operating procedures established by the NCI PDMR. All PDCs were thawed and cultured in Matrigel-coated flasks prepared with a working solution of 1X Ham's F-12 nutrient mix, without supplementation (Invitrogen, Waltham, MA, cat. 11765054), 100 U/mL penicillin-streptomycin (Invitrogen, cat. 15140122), and 2.5% Matrigel (Corning Inc., Corning, NY, cat. 354248) for the first three passages. The 362531-283-R-J2-PDC and 782815-120-R-J1-PDC lines were cultured in 6C/Colon 1B media, which includes advanced DMEM/F-12 (Thermo Fisher Scientific, cat. 12634028), 10 mM HEPES (Thermo Fisher Scientific, cat. 15630080), 1X GlutaMAX supplement (Thermo Fisher Scientific, cat. 35050061), 0.1 mg/mL primocin (InvivoGen, San Diego, CA, cat. ant-pm-2), 10% defined fetal bovine serum, heat inactivated (HyClone Laboratories Inc., Logan, UT, cat. SH30070.03HI), 50% L-WRN conditioned media (ATCC, cat. CRL-3276), 1.25 mM N-Acetyl-L-cysteine (Sigma-Aldrich, cat. A9165), 10 mM nicotinamide (Sigma-Aldrich, cat. N0636), 1X B-27 supplement (Thermo Fisher Scientific, cat. 17504044), 1X N-2 supplement (Thermo Fisher Scientific, cat. 17502048), 50 ng/mL human EGF (Thermo Fisher Scientific, cat. PHG0311), and 10 microM Y-27632 dihydrochloride (Tocris Bioscience, cat. 1254). The K12877-001-R-J1-PDC line was cultured in 6I media, which includes all 6C/Colon 1B media plus 10 ng/mL human FGF-10 (PeproTech, cat. 100-26), 1 ng/mL human FGF-2 (PeproTech, cat. 100-18B), 1 µM prostaglandin E2 (Tocris Bioscience, cat. 2296), […] hydrocortisone (Sigma-Aldrich, cat. H4001), and […] bovine insulin (Sigma-Aldrich, cat. I6634). The K86415-001-R-J1-PDC line was cultured in 6D media, which includes all 6C/Colon 1B media components minus the L-WRN conditioned media. The 485176-168-R4-J1-PDC was cultured in PANC media, which includes all 6C/Colon 1B media plus 100 ng/mL human FGF-10 (PeproTech, cat. 100-26), 500 nM SB-431542 (Selleckchem, cat. S1067), and 10 nM gastrin (Tocris Bioscience, cat. 3006). […]

[1] = second compound 0.000949 µM, first compound 0.00316 µM
[2] = second compound 0.000949 µM, first compound 0.01 µM
[3] = second compound 0.000949 µM, first compound 0.0316 µM
[4] = second compound 0.000949 µM, first compound 0.1 µM
[5] = second compound 0.000949 µM, first compound 0.316 µM
[6] = second compound 0.000949 µM, first compound 1 µM
[7] = second compound 0.003 µM, first compound 0.00316 µM
[8] = second compound 0.003 µM, first compound 0.01 µM
[9] = second compound 0.003 µM, first compound 0.0316 µM
[10] = second compound 0.003 µM, first compound 0.1 µM
[11] = second compound 0.003 µM, first compound 0.316 µM
[12] = second compound 0.003 µM, first compound 1 µM
[13] = second compound 0.00949 µM, first compound 0.00316 µM
[14] = second compound 0.00949 µM, first compound 0.01 µM
[15] = second compound 0.00949 µM, first compound 0.0316 µM
[16] = second compound 0.00949 µM, first compound 0.1 µM
[17] = second compound 0.00949 µM, first compound 0.316 µM
[18] = second compound 0.00949 µM, first compound 1 µM
[19] = second compound 0.03 µM, first compound 0.00316 µM
[20] = second compound 0.03 µM, first compound 0.01 µM
[21] = second compound 0.03 µM, first compound 0.0316 µM
[22] = second compound 0.03 µM, first compound 0.1 µM
[23] = second compound 0.03 µM, first compound 0.316 µM
[24] = second compound 0.03 µM, first compound 1 µM
[25] = second compound 0.0949 µM, first compound 0.00316 µM
[26] = second compound 0.0949 µM, first compound 0.01 µM
[27] = second compound 0.0949 µM, first compound 0.0316 µM
[28] = second compound 0.0949 µM, first compound 0.1 µM
[29] = second compound 0.0949 µM, first compound 0.316 µM
[30] = second compound 0.0949 µM, first compound 1 µM
[31] = second compound 0.3 µM, first compound 0.00316 µM
[32] = second compound 0.3 µM, first compound 0.01 µM
[33] = second compound 0.3 µM, first compound 0.0316 µM
[34] = second compound 0.3 µM, first compound 0.1 µM
[35] = second compound 0.3 µM, first compound 0.316 µM
[36] = second compound 0.3 µM, first compound 1 µM
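Note: spheroids exposed to the agents for seven days before the readout.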

C=CC(=O)Nc1cc(Nc2nccc(-c3cn(C)c4ccccc34)n2)c(OC)cc1N(C)CCN(C)C + CCn1c(-c2cc(N3CCN(C)CC3)cnc2C(C)OC)c2c3cc(ccc31)-c1csc(n1)CC(NC(=O)C1CC1C)C(=O)N1CCCC(N1)C(=O)OCC(C)(C)C2
IC50 (second compound 0.000949 µM): 816 nM | IC50 (second compound 0.003 µM): 106 nM | IC50 (second compound 0.00949 µM): < 3.16 nM | IC50 (second compound 0.03 µM): < 3.16 nM | IC50 (second compound 0.0949 µM): < 3.16 nM | IC50 (second compound 0.3 µM): < 3.16 nM | viability, T/C [1]: 88.7% | viability, T/C [2]: 75.9% | viability, T/C [3]: 56.2% | viability, T/C [4]: 76% | viability, T/C [5]: 56.7% | viability, T/C [6]: 44.5% | viability, T/C [7]: 80.6% | viability, T/C [8]: 63.7% | viability, T/C [9]: 59% | viability, T/C [10]: 52.9% | viability, T/C [11]: 43.1% | viability, T/C [12]: 37.2% | viability, T/C [13]: 47.3% | viability, T/C [14]: 39.5% | viability, T/C [15]: 36.7% | viability, T/C [16]: 38% | viability, T/C [17]: 31.6% | viability, T/C [18]: 23.2% | viability, T/C [19]: 36.4% | viability, T/C [20]: 29.9% | viability, T/C [21]: 28% | viability, T/C [22]: 37.2% | viability, T/C [23]: 28.8% | viability, T/C [24]: 16.2% | viability, T/C [25]: 25.3% | viability, T/C [26]: 25.1% | viability, T/C [27]: 20.9% | viability, T/C [28]: 16.8% | viability, T/C [29]: 18.6% | viability, T/C [30]: 12.7% | viability, T/C [31]: 18.2% | viability, T/C [32]: 26.2% | viability, T/C [33]: 22.1% | viability, T/C [34]: 22.1% | viability, T/C [35]: 16.6% | viability, T/C [36]: 11.2%

Nc1ccn(C2OC(CO)C(O)C2(F)F)c(=O)n1 (centres undefined) + CCn1c(-c2cc(N3CCN(C)CC3)cnc2C(C)OC)c2c3cc(ccc31)-c1csc(n1)CC(NC(=O)C1CC1C)C(=O)N1CCCC(N1)C(=O)OCC(C)(C)C2
IC50 (second compound 0.000949 µM): 14.1 nM | IC50 (second compound 0.003 µM): 6.3 nM | IC50 (second compound 0.00949 µM): < 3.16 nM | IC50 (second compound 0.03 µM): < 3.16 nM | IC50 (second compound 0.0949 µM): < 3.16 nM | IC50 (second compound 0.3 µM): < 3.16 nM | viability, T/C [1]: 67.6% | viability, T/C [2]: 57% | viability, T/C [3]: 34.4% | viability, T/C [4]: 34.4% | viability, T/C [5]: 25.9% | viability, T/C [6]: 23% | viability, T/C [7]: 59.1% | viability, T/C [8]: 43.1% | viability, T/C [9]: 31.8% | viability, T/C [10]: 20.8% | viability, T/C [11]: 16.2% | viability, T/C [12]: 19.7% | viability, T/C [13]: 45.6% | viability, T/C [14]: 30.9% | viability, T/C [15]: 25% | viability, T/C [16]: 19.3% | viability, T/C [17]: 18.2% | viability, T/C [18]: 15.1% | viability, T/C [19]: 37.3% | viability, T/C [20]: 29.4% | viability, T/C [21]: 20.3% | viability, T/C [22]: 14.7% | viability, T/C [23]: 12.8% | viability, T/C [24]: 11.6% | viability, T/C [25]: 26.7% | viability, T/C [26]: 30.3% | viability, T/C [27]: 18.8% | viability, T/C [28]: 16.7% | viability, T/C [29]: 11.7% | viability, T/C [30]: 11% | viability, T/C [31]: 25.9% | viability, T/C [32]: 24.5% | viability, T/C [33]: 20.7% | viability, T/C [34]: 18.4% | viability, T/C [35]: 13.9% | viability, T/C [36]: 12.8%
